Assay results: patent publication US10036048B1, “Process for obtaining a naphthoquinone derivative from Streptomyces sp” (KING SAUD UNIVERSITY, priority 2017, dated 2018)
Values after ≈ are worked out from the molar mass of the structure shown.

How the values were obtained:
[1] = test system: Escherichia coli (ESBL-3904); assay: Minimum inhibitory concentration (MIC), clinical isolate; settings: 24 h, read-out: Minimum Inhibitory Concentration (MIC)
Pseudomonas aeruginosa = assay: Minimum inhibitory concentration (MIC), broth dilution; settings: 24 h, read-out: Minimum Inhibitory Concentration (MIC)
Shigella flexneri = assay: as above; settings: 24 h, read-out: Minimum Inhibitory Concentration (MIC)
[2] = test system: Klebsiella pneumoniae (ESBL-3971); assay: Minimum inhibitory concentration (MIC), clinical isolate; settings: 24 h, read-out: Minimum Inhibitory Concentration (MIC)
Bacillus subtilis = assay: Minimum inhibitory concentration (MIC), broth dilution; settings: 24 h, read-out: Minimum Inhibitory Concentration (MIC)
Salmonella paratyphi-B = assay: as above; type: cell-based; settings: 24 h at 37° C.
[3] = test system: A549 lung adenocarcinoma cancer cell line; assay: Cytotoxic activity (MTT, absorbance at 540 nm); type: cell-based, human
Method: A549 lung adenocarcinoma cancer cell line was obtained from the National Institute of Cell Sciences, Pune. A549 cell line was maintained in complete tissue culture medium Dulbecco's Modified Eagle's Medium with 10% Fetal Bovine Serum and 2 mM L-Glutamine, along with antibiotics (about 100 International Unit/mL of penicillin, 100 μg/mL of streptomycin) with the pH adjusted to 7.2. The cytotoxicity was determined according to the method of Balachandran et al., (2013) with some changes. Cells (5000 cells/well) were seeded in 96 well plates containing medium with different concentrations such as 100, 80, 60, 40, 20, and 10 μg/mL. The cells were cultivated at 37° C. with 5% CO2 and 95% air in 100% relative humidity. After various durations of cultivation, the solution in the medium was removed. An aliquot of 100 μL of medium containing 1 mg/mL of 3-(4,5-dimethylthiazol-2-yl)-2,5-diphenyl-tetrazolium bromide was loaded in the plate. The cells were cultured for 4 h and then the solution in the medium was removed. An aliquot of 100 μL of DMSO was added to the plate, which was shaken until the crystals were dissolved. The cytotoxicity against cancer cells was determined by measuring the absorbance of the converted dye at 540 nm in an Enzyme linked immune sorbant assay (ELISA) reader. Cytotoxicity of each sample was expressed as the half maximal inhibitory concentration (IC50) value. The IC50 value is the concentration of test sample that causes 50% inhibition of cell growth, averaged from three replicate experiments.

[4] = test system: Kiebsiella pneumoniae (ESBL-75799); assay: Minimum inhibitory concentration (MIC), clinical isolate; settings: 24 h, read-out: Minimum Inhibitory Concentration (MIC)
Klebsiella pneumoniae = assay: Minimum inhibitory concentration (MIC), broth dilution; settings: 24 h, read-out: Minimum Inhibitory Concentration (MIC)
Enterobacter aerogenes = assay: as above; settings: Klebsiella aerogenes, 24 h, read-out: Minimum Inhibitory Concentration (MIC)
[5] = test system: Staphylococcus epidermidis; assay: as above; settings: 24 h, read-out: Minimum Inhibitory Concentration (MIC)
Micrococcus luteus = assay: as above; settings: 24 h, read-out: Minimum Inhibitory Concentration (MIC)
[6] = test system: Staphylococcus aureus (MRSA); assay: Minimum inhibitory concentration (MIC), clinical isolate; settings: 24 h, read-out: Minimum Inhibitory Concentration (MIC)
[7] = test system: Escherichia coli (ESBL-3984); assay: as above; settings: 24 h, read-out: Minimum Inhibitory Concentration (MIC)
[8] = test system: Klebsiella pneumoniae (ESBL-3967); assay: as above; settings: 24 h, read-out: Minimum Inhibitory Concentration (MIC)
Proteus vulgaris = assay: Minimum inhibitory concentration (MIC), broth dilution; settings: 24 h, read-out: Minimum Inhibitory Concentration (MIC)
[9] = test system: Klebsiella pneumoniae (ESBL-3894); assay: Minimum inhibitory concentration (MIC), clinical isolate; settings: 24 h, read-out: Minimum Inhibitory Concentration (MIC)
Salmonella typhimurium = assay: Minimum inhibitory concentration (MIC), broth dilution; settings: Salmonella enterica, 24 h, read-out: Minimum Inhibitory Concentration (MIC)
Candida albicans = assay: Minimum inhibitory concentration (MIC), fungi; settings: read-out: Minimum Inhibitory Concentration (MIC)
Malassezia pachydermatis = assay: Minimum inhibitory concentration (MIC), fungi; settings: read-out: Minimum Inhibitory Concentration (MIC)
Staphylococcus aureus = assay: Minimum inhibitory concentration (MIC), broth dilution; settings: 24 h, read-out: Minimum Inhibitory Concentration (MIC)
[10] = test system: Streptomyces sp. isolate ERINLG-201; assay: Antibiotic sensitivity of the isolate; type: cell-based
Method: (ERINLG-201). The Streptomyces sp. isolate ERINLG-201 was recovered from Kodanad forest, (Southern Western Ghats) Tamil Nadu, India. The strain was Gram-positive filamentous bacterium. The culture characteristics of the new isolate were observed after 7, 14 and 21 days of incubation on different media. The color of the substrate mycelia was white. […] The temperature for growth ranged from 25 to 37° C. with optimum of 30° C. and the pH range was 6-12 with normal pH of 7. Utilization of various carbon sources by ERINLG-201 indicated a wide pattern of carbon source assimilation. […] The partial 16S rRNA gene sequences of isolate ERINLG-201 have been deposited in the GenBank database under accession number KC820651.

Compound: CN1C(=O)N2CC(C)(OC3=C2C(=O)c2ccccc2C3=O)c2ccccc21 (stereo not drawn) [C-5, Bluemomycin]
- MIC [1]: 25 mg/L (≈ 69.4 µM)
- MIC (Pseudomonas aeruginosa): 12.5 mg/L (≈ 34.7 µM)
- MIC (Shigella flexneri): 12.5 mg/L (≈ 34.7 µM)
- MIC [2]: > 100 mg/L
- MIC (Bacillus subtilis): 50 mg/L (≈ 139 µM)
- MIC (Salmonella paratyphi-B): 25 mg/L (≈ 69.4 µM)
- % (cytotoxicity) ([3]; 5 μg/mL): 10.5%
- % (cytotoxicity) ([3]; 10 μg/mL): 26.3%
- % (cytotoxicity) ([3]; 20 μg/mL): 51.7%
- % (cytotoxicity) ([3]; 40 μg/mL): 60.2%
- % (cytotoxicity) ([3]; 60 μg/mL): 68.6%
- % (cytotoxicity) ([3]; 80 μg/mL): 78.6%
- % (cytotoxicity) ([3]; 100 μg/mL): 88.7%
- MIC [4]: 12.5 mg/L (≈ 34.7 µM)
- MIC (Klebsiella pneumoniae): 6.25 mg/L (≈ 17.3 µM)
- MIC (Enterobacter aerogenes): 12.5 mg/L (≈ 34.7 µM)
- MIC [5]: 50 mg/L (≈ 139 µM)
- MIC (Micrococcus luteus): 25 mg/L (≈ 69.4 µM)
- MIC [6]: 25 mg/L (≈ 69.4 µM)
- MIC [7]: 12.5 mg/L (≈ 34.7 µM)
- MIC [8]: 6.25 mg/L (≈ 17.3 µM)
- MIC (Proteus vulgaris): 100 mg/L (≈ 277 µM)
- MIC [9]: 12.5 mg/L (≈ 34.7 µM)
- MIC (Salmonella typhimurium): 12.5 mg/L (≈ 34.7 µM)
- MIC (Candida albicans): 50 mg/L (≈ 139 µM)
- MIC (Malassezia pachydermatis): 50 mg/L (≈ 139 µM)
- MIC (Staphylococcus aureus): > 100 mg/L

Compound: CC(=O)N1CCN(c2ccc(OCC3COC(Cn4ccnc4)(c4ccc(Cl)cc4Cl)O3)cc2)CC1 (stereo not drawn) [Ketoconazole]
- MIC (Candida albicans): 25 mg/L (≈ 47 µM)
- MIC (Malassezia pachydermatis): 25 mg/L (≈ 47 µM)

Compound: [H]/N=C(/N)N[C@H]1[C@H](O)[C@@H](O)[C@H](O[C@@H]2O[C@@H](C)[C@](O)(C=O)[C@H]2O[C@@H]2O[C@@H](CO)[C@H](O)[C@@H](O)[C@@H]2NC)[C@@H](N/C(N)=N\[H])[C@@H]1O [Streptomycin]
- MIC [1]: 25 mg/L (≈ 43 µM)
- MIC (Pseudomonas aeruginosa): 25 mg/L (≈ 43 µM)
- MIC (Shigella flexneri): 6.25 mg/L (≈ 10.7 µM)
- MIC [2]: 6.25 mg/L (≈ 10.7 µM)
- MIC (Bacillus subtilis): 25 mg/L (≈ 43 µM)
- MIC (Salmonella paratyphi-B): 6.25 mg/L (≈ 10.7 µM)
- MIC [4]: 25 mg/L (≈ 43 µM)
- MIC (Klebsiella pneumoniae): 25 mg/L (≈ 43 µM)
- MIC (Enterobacter aerogenes): 25 mg/L (≈ 43 µM)
- MIC [5]: 25 mg/L (≈ 43 µM)
- MIC (Micrococcus luteus): 6.25 mg/L (≈ 10.7 µM)
- MIC [6]: 6.25 mg/L (≈ 10.7 µM)
- MIC [7]: 25 mg/L (≈ 43 µM)
- MIC [8]: 25 mg/L (≈ 43 µM)
- MIC (Proteus vulgaris): 6.25 mg/L (≈ 10.7 µM)
- MIC [9]: 6.25 mg/L (≈ 10.7 µM)
- MIC (Salmonella typhimurium): 25 mg/L (≈ 43 µM)
- MIC (Staphylococcus aureus): 6.25 mg/L (≈ 10.7 µM)

Compound: NCC[C@H](O)C(=O)N[C@@H]1C[C@H](N)[C@@H](O[C@H]2O[C@H](CN)[C@@H](O)[C@H](O)[C@H]2O)[C@H](O)[C@H]1O[C@H]1O[C@H](CO)[C@@H](O)[C@H](N)[C@H]1O [amikacin]
- sensitivity of ERINLG-201 towards antibiotic [10]: sensitivity

Compound: CC1(C)S[C@@H]2[C@H](NC(=O)[C@H](N)c3ccccc3)C(=O)N2[C@H]1C(=O)O [ampicillin]
- sensitivity of ERINLG-201 towards antibiotic [10]: sensitivity

Compound: O=C(Cc1cccs1)N[C@@H]1C(=O)N2C(C(=O)[O-])=C(C[n+]3ccccc3)CS[C@H]12 [cephaloridine]
- sensitivity of ERINLG-201 towards antibiotic [10]: sensitivity

Compound: O=C(O)c1cn(C2CC2)c2cc(N3CCNCC3)c(F)cc2c1=O [ciprofloxacin]
- sensitivity of ERINLG-201 towards antibiotic [10]: sensitivity

Compound: CC[C@H]1OC(=O)[C@H](C)[C@@H](O[C@H]2C[C@@](C)(OC)[C@@H](O)[C@H](C)O2)[C@H](C)[C@@H](O[C@@H]2O[C@H](C)C[C@H](N(C)C)[C@H]2O)[C@](C)(O)C[C@@H](C)C(=O)[C@H](C)[C@@H](O)[C@]1(C)O [erythromycin]
- sensitivity of ERINLG-201 towards antibiotic [10]: sensitivity

Compound: CCn1cc(C(=O)O)c(=O)c2cc(F)c(N3CCNCC3)cc21 [norfloxacin]
- sensitivity of ERINLG-201 towards antibiotic [10]: sensitivity

Compound: CO[C@H]1/C=C/O[C@@]2(C)Oc3c(C)c(O)c4c(O)c(cc(O)c4c3C2=O)NC(=O)/C(C)=C\C=C\[C@H](C)[C@H](O)[C@@H](C)[C@@H](O)[C@@H](C)[C@H](OC(C)=O)[C@@H]1C [rifamycin]
- sensitivity of ERINLG-201 towards antibiotic [10]: sensitivity

Compound: gentamicin
- sensitivity of ERINLG-201 towards antibiotic [10]: sensitivity

Compound: penicillin
- sensitivity of ERINLG-201 towards antibiotic [10]: sensitivity

Compound: vencomycin
- sensitivity of ERINLG-201 towards antibiotic [10]: sensitivity
